Among the data in US7713994B2 (Wyeth LLC, priority 2005, dated 2010) are IC50 values, retold here.

In assay [1] the test system is MCF-7. Briefly: Cytotoxicity assay (SRB), MCF-7. It is filed as cell-based. Conditions: Homo sapiens, MCF7, 72 h, MCF-7 cells, 3 days, SRB; read-out: In Vitro Cellular Activity IC50 MCF-7. The method in brief: (§1)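 Protein staining with sulforhodamine B after cold TCA fixation served as the survival endpoint (A540, relative to untreated cells). Before staining, cells were incubated with compound at 37 °C, 7% CO2 for 3 days, or 6 days for BT474.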

The subject of assay [2] is BT474. Briefly: Cytotoxicity assay (SRB), BT474. It is filed as cell-based. The note with it: Homo sapiens, BT-474, 144 h, BT474 cells, 6 days, SRB; read-out: In Vitro Cellular Activity IC50 BT474. The method in brief:
as §1

Assay [3] has as its target T1, cyclin D1/cdk 4 enzyme (Homo sapiens, UniProt P11802).
T1 construct: made in house; host or cells: Sf9 insect cells, recombinant baculovirus
In words: CDK4 ELISA kinase assay (phospho-Rb ser 795 detection). The note with it: In Vitro Enzyme Assay, cyclin D1/cdk 4, read-out: CDK4 IC50. In kind it is biochemical. In short, it runs like this:
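ELISA format: plate-bound GST-Rb, 200 μM ATP, Sf9 cyclin/CDK enzyme, 1 h at 30° C; then anti-pRb Ser795 primary overnight at 4° C, HRP secondary, TMB. IC50 after no-substrate background subtraction.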

Assay [4] has as its system LoVo. Briefly: Cytotoxicity assay (SRB), LoVo. In kind it is cell-based. The note with it: Homo sapiens, LoVo, 72 h, LoVo cells, 3 days, SRB; read-out: In Vitro Cellular Activity IC50 LOVO. In short, it runs like this:
as §1

The test system of assay [5] is HCT-116. Briefly: Cytotoxicity assay (SRB), HCT-116. In kind it is cell-based. Conditions: Homo sapiens, HCT-116, 72 h, HCT116 cells, 3 days, SRB; read-out: In Vitro Cellular Activity IC50 HCT116. The method in brief: as §1

T1 sequence (P11802 whole entry, species assumed): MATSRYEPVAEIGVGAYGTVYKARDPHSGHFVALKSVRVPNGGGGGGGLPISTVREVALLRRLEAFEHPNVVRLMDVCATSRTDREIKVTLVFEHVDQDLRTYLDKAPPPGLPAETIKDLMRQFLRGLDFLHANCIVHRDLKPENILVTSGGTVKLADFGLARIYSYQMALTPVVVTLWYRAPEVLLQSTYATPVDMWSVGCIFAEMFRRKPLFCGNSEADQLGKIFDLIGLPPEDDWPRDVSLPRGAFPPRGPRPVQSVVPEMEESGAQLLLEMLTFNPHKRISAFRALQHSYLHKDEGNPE
T1 sequence (P24385 whole entry partner, species assumed): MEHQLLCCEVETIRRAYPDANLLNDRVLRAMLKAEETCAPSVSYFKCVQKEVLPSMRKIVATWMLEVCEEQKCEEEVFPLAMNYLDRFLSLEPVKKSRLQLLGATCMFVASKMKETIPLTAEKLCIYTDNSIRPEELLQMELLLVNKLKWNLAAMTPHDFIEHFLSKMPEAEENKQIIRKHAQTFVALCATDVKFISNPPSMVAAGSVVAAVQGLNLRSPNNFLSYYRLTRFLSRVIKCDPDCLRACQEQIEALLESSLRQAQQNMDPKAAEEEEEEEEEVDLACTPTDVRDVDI

With `N#CCc1ccc(NC=C2C(=O)NC(=O)c3ccc(-c4ccc(F)cc4)cc32)cc1` [Example 704, (4-{[6-(4-Fluoro-phenyl)-1,3-dioxo-2,3-dihydro-1H-isoquinolin-4-ylidenemethyl]-amino}-phenyl)-acetonitrile], the IC50 in assay [1] is 28.6 µM; in assay [2], 26.4 µM; in assay [3], 7 µM; in assay [4], over 50 µM; in assay [5], over 50 µM.

As for `N#CCc1ccc(NC=C2C(=O)NC(=O)c3ccc(-c4ccccc4F)cc32)cc1` [Example 706, (4-{[6-(2-Fluoro-phenyl)-1,3-dioxo-2,3-dihydro-1H-isoquinolin-4-ylidenemethyl]-amino}-phenyl)-acetonitrile], the IC50 in assay [1] was 40.4 µM; in assay [2] it was over 50 µM; in assay [3], 7.3 µM; in assay [4] it was over 50 µM; in assay [5] it was over 50 µM.

For the compound `CC(=O)c1ccccc1-c1ccc2c(c1)C(=CNc1ccc(CC#N)cc1)C(=O)NC2=O` [Example 711, (4-{[6-(2-Acetyl-phenyl)-1,3-dioxo-2,3-dihydro-1H-isoquinolin-4-ylidenemethyl]-amino}-phenyl)-acetonitrile], the IC50 was over 50 µM in assay [1]; 46.7 µM in assay [2]; 9.8 µM in assay [3]; over 50 µM in assay [4]; over 50 µM in assay [5].

On to `N#CCc1ccc(NC=C2C(=O)NC(=O)c3ccc(-c4ccccc4Cl)cc32)cc1` [Example 714, (4-{[6-(2-Chloro-phenyl)-1,3-dioxo-2,3-dihydro-1H-isoquinolin-4-ylidenemethyl]-amino}-phenyl)-acetonitrile], for which the IC50 is 31.2 µM in assay [1]; over 50 µM in assay [2]; 5.5 µM in assay [3]; over 50 µM in assay [4]; over 50 µM in assay [5].

Turning to `Cc1ccc(-c2ccc3c(c2)C(=CNc2ccc(CC#N)cc2)C(=O)NC3=O)cc1` [Example 715, {4-[(1,3-Dioxo-6-p-tolyl-2,3-dihydro-1H-isoquinolin-4-ylidenemethyl)-amino]-phenyl}-acetonitrile], the IC50 in assay [1] turned out to be 24.8 µM; in assay [2], 33.4 µM; in assay [3] it was 9.3 µM; in assay [4], 26 µM; in assay [5], 19.6 µM.

With `Cc1cccc(-c2ccc3c(c2)C(=CNc2ccc(CC#N)cc2)C(=O)NC3=O)c1` [Example 716, {4-[(1,3-Dioxo-6-m-tolyl-2,3-dihydro-1H-isoquinolin-4-ylidenemethyl)-amino]-phenyl}-acetonitrile], the IC50 in assay [1] is 27.2 µM; in assay [2] it was over 50 µM; in assay [3] it was 9.3 µM; in assay [4], over 50 µM; in assay [5] it was over 50 µM.

Regarding `CN1CCN(c2ccc(NC=C3C(=O)NC(=O)c4ccc(C=CCO)cc43)cc2)CC1` [Example 724, 6-(3-Hydroxy-propenyl)-4-{[4-(4-methyl-piperazin-1-yl)-phenylamino]-methylene}-4H-isoquinoline-1,3-dione], the IC50 in assay [1] came to 14.8 µM; in assay [2], 16.9 µM; in assay [3], 3.6 µM; in assay [4], 10.4 µM; in assay [5], 5.8 µM.

Take `CN1CCN(c2ccc(NC=C3C(=O)NC(=O)c4ccc(C=Cc5ccc(N)cc5)cc43)cc2)CC1` [Example 725, 6-[2-(4-Amino-phenyl)-vinyl]-4-{[4-(4-methyl-piperazin-1-yl)-phenylamino]-methylene}-4H-isoquinoline-1,3-dione]: the IC50 in assay [1] amounted to 29.3 µM; in assay [2] it was 19.5 µM; in assay [3], 2.9 µM; in assay [4], 29.9 µM; in assay [5], 8 µM.

`CN1CCN(c2ccc(NC=C3C(=O)NC(=O)c4ccc(C=Cc5ccc(C(F)(F)F)cc5)cc43)cc2)CC1` [Example 729, 4-{[4-(4-Methyl-piperazin-1-yl)-phenylamino]-methylene}-6-[2-(4-trifluoromethyl-phenyl)-vinyl]-4H-isoquinoline-1,3-dione]: the IC50 in assay [1] came out at 2.1 µM; in assay [2], 4.7 µM; in assay [3], 10.9 µM; in assay [4] it was 17.9 µM; in assay [5] it was 1.4 µM.

Turning to `CN1CCN(c2ccc(NC=C3C(=O)NC(=O)c4ccc(C=CC(O)CO)cc43)cc2)CC1` (centres unmarked) [Example 730, 6-(3,4-Dihydroxy-but-1-enyl)-4-{[4-(4-methyl-piperazin-1-yl)-phenylamino]-methylene}-4H-isoquinoline-1,3-dione], the 50% inhibitory concentration (IC50) in assay [1] was determined as 40.9 µM; in assay [2], 20.2 µM; in assay [3], 2.5 µM; in assay [4] it was 28.8 µM; in assay [5] it was 17.1 µM.

As for `COc1cccc(-c2ccc3c(c2)C(=CNCc2ccc(S(N)(=O)=O)cc2)C(=O)NC3=O)c1` [Example 737, 4-({[6-(3-Methoxy-phenyl)-1,3-dioxo-2,3-dihydro-1H-isoquinolin-4-ylidenemethyl]-amino}-methyl)-benzenesulfonamide], the IC50 is 12.7 µM in assay [1]; over 50 µM in assay [2]; 6 µM in assay [3]; 15.3 µM in assay [4]; 17.7 µM in assay [5].

As for `NS(=O)(=O)c1ccc(CNC=C2C(=O)NC(=O)c3ccc(-c4cccc(Cl)c4)cc32)cc1` [Example 750, 4-({[6-(3-Chloro-phenyl)-1,3-dioxo-2,3-dihydro-1H-isoquinolin-4-ylidenemethyl]-amino}-methyl)-benzenesulfonamide], the IC50 is 39 µM in assay [1]; over 50 µM in assay [2]; 2.5 µM in assay [3]; 27.8 µM in assay [4]; 29.1 µM in assay [5].

On to `NS(=O)(=O)c1ccc(CNC=C2C(=O)NC(=O)c3ccc(-c4ccccc4Cl)cc32)cc1` [Example 751, 4-({[6-(2-Chloro-phenyl)-1,3-dioxo-2,3-dihydro-1H-isoquinolin-4-ylidenemethyl]-amino}-methyl)-benzenesulfonamide], for which the half-maximal inhibitory concentration (IC50) in assay [1] was 8.2 µM; in assay [2], 7.1 µM; in assay [3] it was 2.5 µM; in assay [4], 10.1 µM; in assay [5], 6.3 µM.

Take `Cc1ccc(-c2ccc3c(c2)C(=CNCc2ccc(S(N)(=O)=O)cc2)C(=O)NC3=O)cc1` [Example 752, 4-{[(1,3-Dioxo-6-p-tolyl-2,3-dihydro-1H-isoquinolin-4-ylidenemethyl)-amino]-methyl}-benzenesulfonamide]: the IC50 in assay [1] turned out to be 18.5 µM; in assay [2] it was 33.3 µM; in assay [3], 1.3 µM; in assay [4], 33.4 µM; in assay [5], 14.8 µM.

With `Cc1cccc(-c2ccc3c(c2)C(=CNCc2ccc(S(N)(=O)=O)cc2)C(=O)NC3=O)c1` [Example 753, 4-{[(1,3-Dioxo-6-m-tolyl-2,3-dihydro-1H-isoquinolin-4-ylidenemethyl)-amino]-methyl}-benzenesulfonamide], the IC50 in assay [1] came to 13.3 µM; in assay [2] it was 28.9 µM; in assay [3], 3.4 µM; in assay [4], 23.4 µM; in assay [5], 14.4 µM.

Consider `N=C(N)c1ccc(NC=C2C(=O)NCc3cc(Cl)ccc32)cc1` [Example 857, 4-[(7-Chloro-3-oxo-2,3-dihydro-1H-isoquinolin-4-ylidenemethyl)-amino]-benzamidine], for which the IC50 in assay [1] was over 50 µM; in assay [2], 24 µM; in assay [3], 18.5 µM; in assay [4], over 50 µM; in assay [5] it was 43.1 µM.
